What all share (format): physicochemical
Data set [1] in a line: Stability in concentrated hydrochloric acid.
Data set [2] in a line: Solubility in capsule fill solvents. As for the experimental part:
The encapsulation process requires the color-forming ligand be dissolved in a solvent or mixed solvents, because of the nature of the procedure. Formation of a microcapsule shell as by condensation of urea or melamine with an aldehyde such as formaldehyde or mixtures of aldehydes to form the capsule shell is carried out in an acidic aqueous medium and the color-former solution must be insoluble and unreactive to these reagents for the encapsulation to proceed. Solvents commonly used include tributyl phosphate, diethyl phthalate, and cyclohexane. […] As mentioned above, solubility of yellow color-formers exemplified by structure I in nonaqueous solvents such as those used in the encapsulation process may be increased by substituting alkyl, aryl, aralkyl, alkenyl, or such groups for the hydrogens on the various positions available in the structure I above.
(§1) This color observed on the CF sheet was yellow. […] Solubility in a solvent blend of tributyl phosphate, diethyl phthalate and cyclohexane (capsule solvents for preparing carbonless copy-paper) was >9% by weight. Thus the ligand is eminently suitable for encapsulation. The ligand is not volatile at 71 ° C. overnight.
Solubility in a solvent blend of tributyl phosphate, diethyl phthalate and cyclohexane (capsule solvents for preparing carbonless copy-paper) was 3% by weight. Thus the ligand is eminently suitable for encapsulation. The ligand is not volatile at 71 ° C. overnight.
*THE SOLUBILITY WAS DEEMED PREFERABLE IF IT WAS GREATER THAN 2% IN THE
FILL MIX AT ROOM TEMPERATURE FOR 3 DAYS. THE FILL MIX COMPRISED
TRIBUTYLPHOSPHATE (26.5%); DIETHYLPHTHALATE (17.6%); AND CYCLOHEXANE

Data set [3] in a line: Color formation with zinc salts (zinc rosinate). As for the experimental part:
as §1
This color observed on the CF sheet was yellow.

Data set [4] is described as follows: Volatility: transfer from simulated donor sheet to receptor sheet. The following applies: 71 ° C. overnight. From the text: The method utilized in the experiments to both define and evaluate the level of volatility was as follows. A single sheet piece of Grade #10 (20×12 cm) cheesecloth (AF & F., Item No. 588033, American Fiber and Finishing, Inc., Burlington, Mass.) was placed between a simulated donor sheet and a receptor sheet of a carbonless paper construction. The simulated donor sheet comprised a sheet of paper saturated with color-former of structure I, which was used to simulate a CB sheet with ruptured capsules. Pressure was then applied for 24 hours by placing 9 pounds of paper on top of the sheets, to simulate storage conditions of the paper packages. The formation of color on the receptor sheet, due to transfer of volatile color-former thereto, was used as an indication that the particular color-former was less than optimally desirable for carbonless paper constructions, i.e., was volatile. A compound was considered generally to be nonvolatile, within the meaning of the term as used herein to define the present invention and thus to define color-formers most acceptable for use in carbonless image transfer arrangements, if no color was formed after the simulated test was run for about 24 hours at 25° C. In some instances, if no color was formed after storage at room temperature (25° C.), successively higher temperatures were used, as for example 49° C., 60° C., and 71° C. […]

Data set [5] can be described thus: Color (Hunter coordinates) of Ni complex, swabbed on Ni-coated receptor (CF) sheet. Also on record: key to Hunter coordinate a / Hunter Coordinates a: Hunter a: +a red, -a green; key to Hunter coordinate b / Hunter Coordinates b: Hunter b: +b yellow, -b blue. As to the method: In general, the colors of the complexes, as listed in Table 2 and Experiments 4, 6, and 7 below, were determined by preparing a 1% solution of the color-former or mixture of color-formers in an appropriate solvent. Unless otherwise indicated, the solvent was composed of a mixture of tributyl phosphate (26.5%), diethyl phthalate (17.6%), and cyclohexane (55.9%). The images were formed by applying two stripes of the solution to a substrate coated with a Ni^2+ coated receptor sheet using a cotton tipped applicator swab. Rapid and complete development of the image was achieved by passing the sheet through a hot shoe adjusted to 102° C., making a revolution every 10 seconds. The visually observed colors were measured and recorded.
One method of color measurement is to determine the color's position in color space. One color space system is the Hunter System; see F. W. Billmeyer, Jr., and M. Saltzman, Principles of Color Technology; John Wiley & Sons; New York, N.Y.; Ch. 2 & 3, 1981. In this system three mutually perpendicular axes (L, a, and b) are needed to define a color. "L" (+z axis) represents the lightness or darkness of the image; "a" (x axis) represents the amount of red or green (+a is red, -a is green); and "b" (y axis) represents the amount of yellow or blue (+b is yellow, -b is blue). By measuring a material's L, a, and b values, the color of one sample can be compared with that of other samples. Another value used in the Hunter System is Chroma (C). Chroma is defined by the equation [C=(a^2 +b^2)^1/2 ] and represents the distance of the image coordinates from the origin. The greater the Chroma, the more intense the image. Chroma is used to compare images cf the same hue. Because the color of a sample is also dependent upon the color temperature of the illuminating source, the angle at which the sample is illuminated, the angle at which the illumination is reflected, and the angle of the retina illuminated, these all need to be specified. Many instruments have been developed to record these values. One such instrument is the HunterLab LabScan II. This instrument is capable of automatically determining the L, a, and b values for a given sample, and was used for the following examples.
The L, a, and b color coordinates of the more uniform stripe were measured for 45°/0° reflectance on a HunterLab LabScan II, secondary observer, using illuminant C. The observed (image) color and the Hunter coordinates for Ni^2+ complexes of the yellow color-formers of this invention are given in Table 2.
A 1% solution of the condensation product in the encapsulation fill mix was swabbed onto a carbonless paper CF sheet (sold by the 3M Co. St. Paul, Minn.) with a cotton swab. The reflectance spectra had Hunter coordinates of: […]

Setting [6] is: 1% solution in encapsulation fill mix swabbed onto 3M CF sheet (Experiments 2, 3).
Setting [7] is: Ni(II) complex, swab concn. 1%, 45°/0° reflectance, illuminant C (Table 2).

Structures are written as SMILES.

Turning to `CC(C)(C)c1cc(C=NN=C(N)C(N)=NN=Cc2cc(C(C)(C)C)cc(C(C)(C)C)c2O)c(O)c(C(C)(C)C)c1` [Compound 1, ethanediimidic acid bis[(3,5-di-t-butylsalicylidene)hydrazide]], the “stability in concentrated hydrochloric acid” value in data set [1] is listed as “stable”. In data set [2], the “Solubility in a solvent blend of tributyl phosphate, diethyl phthalate and cyclohexane” value is recorded as over 9 % by weight; the “solubility in encapsulation / capsule solvents (in words)” value is reported as “very soluble in encapsulation solvents”. In data set [2] (4320 min), the “Dye Solubility” value is recorded as over 9.0%. Also, the “color formation when reacted with zinc rosinate” value in data set [3] is given as “does not form color”. The volatility entry in data set [4] is recorded as “not volatile”. In addition, in data set [5] (setting [6]), the “Hunter coordinate L” value stood at 79.8, the Hunter coordinate a was -2.1 and the Hunter coordinate b amounted to 39.3. For the same molecule, the “color observed on the CF sheet” value in data set [5] (1% solution swabbed (Experiments 2, 3)) was “yellow”. The molecule further gave a Chroma in data set [5] (C=(a^2 +b^2)^1/2, Ni(II) complex, swab concn. 1% (Table 2)) of 39.3. The “Image Color” value in data set [5] (Ni(II) complex, swab concn. 1% (Table 2)) is given as “Yellow”. Besides, in data set [5] (setting [7]), the “Hunter Coordinates L” value is 79.8, the “Hunter Coordinates a” value is on record as -2.1 and the “Hunter Coordinates b” value is listed as 39.3.
